Measurements taken from the supplement of paper PMC10307832.

Columns and labels:
Test in all cases: relative viability (nuclei count vs DMSO), 5 days (fraction); higher = more cells survive
[1] = tested on: RERF-LC-KJ
Summary of the method: (§1)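 Relative viability was taken as the ratio of nuclei in treated wells to nuclei in vehicle wells. Lung cancer cell lines in 1536-well plates received compounds by pin tool one day after seeding, either one drug alone or a fixed anchor-drug dose plus five library-drug doses (not always all listed) in √10 steps. Nuclei were counted on 4× images after 5 days of treatment, and values are medians of duplicate plates.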

[2] = tested on: HARA
Summary of the method: as §1

[3] = tested on: SW 1573
Summary of the method: as §1

[4] = tested on: 201T
Summary of the method: as §1

[5] = tested on: HCC-44
Summary of the method: as §1

[6] = tested on: NCI-H1650
Summary of the method: as §1

[7] = tested on: LOU-NH91
Summary of the method: as §1

[8] = tested on: A-427
Summary of the method: as §1

[9] = tested on: NCI-H2023
Summary of the method: as §1

[10] = tested on: HCC-15
Summary of the method: as §1

[11] = tested on: HCC-366
Summary of the method: as §1

[12] = tested on: ChaGo-K-1
Summary of the method: as §1

[13] = tested on: NCI-H441
Summary of the method: as §1

[14] = tested on: NCI-H1993
Summary of the method: as §1

[15] = tested on: NCI-H2126
Summary of the method: as §1

[16] = tested on: COR-L23
Summary of the method: as §1

[17] = tested on: LCLC-97TM1
Summary of the method: as §1

[18] = tested on: NCI-H1734
Summary of the method: as §1

[19] = tested on: LCLC-103H
Summary of the method: as §1

[20] = tested on: NCI-H2009
Summary of the method: as §1

[21] = tested on: NCI-H460
Summary of the method: as §1

[22] = tested on: NCI-H650
Summary of the method: as §1

[23] = tested on: HCC-78
Summary of the method: as §1

## Cc1cnc(-c2cnc(NCCNc3ccc(C#N)cn3)nc2-c2ccc(Cl)cc2Cl)[nH]1 + O=C(c1cc(Cc2n[nH]c(=O)c3ccccc23)ccc1F)N1CCN(C(=O)C2CC2)CC1 [Olaparib] (partner 8 µM)
[1]; first compound 0.08 µM
  relative viability: 0.902
[1]; first compound 0.253 µM
  relative viability: 0.65
[1]; first compound 0.8 µM
  relative viability: 0.839
[1]; first compound 2.53 µM
  relative viability: 0.858
[2]; first compound 0.08 µM
  relative viability: 0.509
[2]; first compound 0.253 µM
  relative viability: 0.72
[2]; first compound 0.8 µM
  relative viability: 0.764
[2]; first compound 2.53 µM
  relative viability: 0.894
[3]; first compound 0.08 µM
  relative viability: 0.532
[3]; first compound 0.253 µM
  relative viability: 0.406
[3]; first compound 0.8 µM
  relative viability: 0.494
[3]; first compound 2.53 µM
  relative viability: 0.233
[4]; first compound 0.08 µM
  relative viability: 0.848
[4]; first compound 0.8 µM
  relative viability: 0.81
[4]; first compound 2.53 µM
  relative viability: 0.834
[5]; first compound 0.08 µM
  relative viability: 0.934
[5]; first compound 0.253 µM
  relative viability: 0.946
[5]; first compound 0.8 µM
  relative viability: 1.04
[5]; first compound 2.53 µM
  relative viability: 0.989
[6]; first compound 0.08 µM
  relative viability: 0.724
[6]; first compound 0.253 µM
  relative viability: 0.737
[6]; first compound 0.8 µM
  relative viability: 0.808
[6]; first compound 2.53 µM
  relative viability: 0.868
[7]; first compound 0.08 µM
  relative viability: 0.94
[7]; first compound 0.253 µM
  relative viability: 0.868
[7]; first compound 0.8 µM
  relative viability: 0.962
[7]; first compound 2.53 µM
  relative viability: 0.877
[8]; first compound 0.08 µM
  relative viability: 0.759
[8]; first compound 0.253 µM
  relative viability: 0.711
[8]; first compound 0.8 µM
  relative viability: 0.822
[8]; first compound 2.53 µM
  relative viability: 0.743
[9]; first compound 0.08 µM
  relative viability: 0.502
[9]; first compound 0.253 µM
  relative viability: 0.51
[9]; first compound 0.8 µM
  relative viability: 0.439
[9]; first compound 2.53 µM
  relative viability: 0.36
[10]; first compound 0.08 µM
  relative viability: 0.77
[10]; first compound 0.253 µM
  relative viability: 0.653
[10]; first compound 0.8 µM
  relative viability: 0.721
[10]; first compound 2.53 µM
  relative viability: 0.737
[11]; first compound 0.08 µM
  relative viability: 0.375
[11]; first compound 0.253 µM
  relative viability: 0.297
[11]; first compound 0.8 µM
  relative viability: 0.338
[12]; first compound 0.08 µM
  relative viability: 0.406
[12]; first compound 0.253 µM
  relative viability: 0.361
[12]; first compound 0.8 µM
  relative viability: 0.362
[12]; first compound 2.53 µM
  relative viability: 0.322
[13]; first compound 0.08 µM
  relative viability: 0.568
[13]; first compound 0.8 µM
  relative viability: 0.536
[13]; first compound 2.53 µM
  relative viability: 0.387
[14]; first compound 0.08 µM
  relative viability: 1.1
[14]; first compound 0.253 µM
  relative viability: 0.855
[14]; first compound 0.8 µM
  relative viability: 1.13
[14]; first compound 2.53 µM
  relative viability: 1.2
[15]; first compound 0.08 µM
  relative viability: 0.922
[15]; first compound 0.253 µM
  relative viability: 0.908
[15]; first compound 0.8 µM
  relative viability: 0.89
[15]; first compound 2.53 µM
  relative viability: 0.898
[16]; first compound 0.08 µM
  relative viability: 0.379
[16]; first compound 0.253 µM
  relative viability: 0.314
[16]; first compound 0.8 µM
  relative viability: 0.343
[16]; first compound 2.53 µM
  relative viability: 0.261
[17]; first compound 0.08 µM
  relative viability: 0.379
[17]; first compound 0.253 µM
  relative viability: 0.36
[17]; first compound 0.8 µM
  relative viability: 0.417
[17]; first compound 2.53 µM
  relative viability: 0.316
[18]; first compound 0.08 µM
  relative viability: 0.635
[18]; first compound 0.253 µM
  relative viability: 0.622
[18]; first compound 0.8 µM
  relative viability: 0.644
[18]; first compound 2.53 µM
  relative viability: 0.516
[19]; first compound 0.08 µM
  relative viability: 0.837
[19]; first compound 0.253 µM
  relative viability: 0.673
[19]; first compound 0.8 µM
  relative viability: 0.731
[19]; first compound 2.53 µM
  relative viability: 0.818
[20]; first compound 0.08 µM
  relative viability: 0.746
[20]; first compound 0.253 µM
  relative viability: 0.661
[20]; first compound 0.8 µM
  relative viability: 0.697
[20]; first compound 2.53 µM
  relative viability: 0.605
[21]; first compound 0.08 µM
  relative viability: 0.323
[21]; first compound 0.8 µM
  relative viability: 0.342
[21]; first compound 2.53 µM
  relative viability: 0.402
[22]; first compound 0.08 µM
  relative viability: 0.41
[22]; first compound 0.253 µM
  relative viability: 0.36
[22]; first compound 0.8 µM
  relative viability: 0.479
[22]; first compound 2.53 µM
  relative viability: 0.393
[23]; first compound 0.08 µM
  relative viability: 0.865
[23]; first compound 0.253 µM
  relative viability: 0.588
[23]; first compound 0.8 µM
  relative viability: 0.737
[23]; first compound 2.53 µM
  relative viability: 0.834
